Data from patent publication US8916567B2, “Certain crystalline hydrates, pharmaceutical compositions thereof and methods for preparation and use thereof” (Universal Technology Alliance, Inc., priority 2009, dated 2014).
Where two headings read alike, the source gives them in different places.

Tests used:
[1] = tested on: Staphylococcus aureus MSSA; assay: Minimum inhibitory concentration (MIC) in vitro, agar dilution method; assay type: cell-based
Procedure, shortened: (§1)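 MIC50, MIC90, MIC range and individual MICs derive from CLSI/NCCLS agar dilution testing of 2007-2008 clinical isolates from Sichuan and Beijing. Samples were prepared in DMSO with further dilution in sterile water; vancomycin and linezolid served as reference drugs.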

S. epidermidis MRSE = assay: as above; assay type: cell-based; conditions: hydrate
Procedure, shortened: as §1

E. feacalis = assay: as above; assay type: cell-based; conditions: hydrate
Procedure, shortened: as §1

S. epidermidis MSSE = assay: as above; assay type: cell-based
Procedure, shortened: as §1

[2] = tested on: Staphylococcus aureus MRSA; assay: as above; assay type: cell-based
Procedure, shortened: as §1

E. feacium = assay: as above; assay type: cell-based
Procedure, shortened: as §1

[3] = Solubility in different solvents according to Chinese Pharmacopeia (2005 edition); assay type: physicochemical; conditions: for Result: at the given solute:solvent ratio
Description: The solubility of the (S)—[N-3-(3′-fluoro-4′-(4″-phenylpiperazinyl))phenyl-2-oxo-5-oxazolelidinyl]methylacetamide hydrates was tested with different solvents, and the test results are shown in Tables 15-19. The solubility was measured according to Chinese Pharmacopeia (2005 edition).

Staphylococcus aureus = assay: Minimum inhibitory concentration (MIC) in vitro, agar dilution method, quality control strain; assay type: cell-based; conditions: strain S. AT C C25923 (Table 7 No. 1); hydrate
Procedure, shortened: as §1

[4] = S. MSSA (11 strains), clinically isolated, hydrate
[5] = S. ep MRSE (10 strains), clinically isolated
[6] = E. feacalis (5 strains), clinically isolated
[7] = S. ep MSSE (10 strains), clinically isolated, hydrate
[8] = S. MRSA (10 strains), clinically isolated, hydrate
[9] = E. feacium (5 strains), clinically isolated, hydrate

Compound: CC(=O)NC[C@H]1CN(c2ccc(N3CCN(c4ccccc4)CC3)c(F)c2)C(=O)O1 [½ hydrate, (S)—[N-3-(3′-fluoro-4′-(4″-phenylpiperazinyl))phenyl-2-oxo-5-oxazolidinyl]methyl acetamide 1/2 hydrate]
- MIC50 [1, 4]: 0.25 µg/mL
- MIC90 [1, 4]: 0.25 µg/mL
- MICrange [1, 4]: 0.25 to 0.5 µg/mL
- MIC ([1]; Staphylococcus aureus, MSSA, strain S. MSSA 195 (Table 7 No. 6), read-out: MIC): 0.5 µg/mL
- MIC ([1]; Staphylococcus aureus, MSSA, strain S. MSSA 201 (Table 7 No. 11), read-out: MIC): 0.25 µg/mL
- MIC ([1]; Staphylococcus aureus, MSSA, strain S. MSSA 466 (Table 7 No. 8), read-out: MIC): 0.25 µg/mL
- MIC ([1]; Staphylococcus aureus, MSSA, strain S. MSSA 519 (Table 7 No. 9), read-out: MIC): 0.5 µg/mL
- MIC ([1]; strain S. MSSA 123 (Table 7 No. 3), hydrate): 0.25 µg/mL
- MIC ([1]; strain S. MSSA 187 (Table 7 No. 7), hydrate): 0.25 µg/mL
- MIC ([1]; strain S. MSSA 195 (Table 7 No. 12), hydrate): 0.25 µg/mL
- MIC ([1]; strain S. MSSA 232 (Table 7 No. 2), hydrate): 0.25 µg/mL
- MIC ([1]; strain S. MSSA 275 (Table 7 No. 10), hydrate): 0.25 µg/mL
- MIC ([1]; strain S. MSSA 520 (Table 7 No. 4), hydrate): 0.25 µg/mL
- MIC ([1]; strain S. MSSA 580 (Table 7 No. 5), hydrate): 0.25 µg/mL
- MIC50 (S. epidermidis MRSE; [5]): 0.25 µg/mL
- MIC90 (S. epidermidis MRSE; [5]): 0.25 µg/mL
- MICrange (S. epidermidis MRSE; [5]): 0.25 µg/mL
- MIC (S. epidermidis MRSE; strain S. ep MRSE4 (Table 8 No. 9)): 0.25 µg/mL
- MIC (S. epidermidis MRSE; strain S. ep MRSE20 (Table 8 No. 6)): 0.25 µg/mL
- MIC (S. epidermidis MRSE; strain S. ep MRSE87 (Table 8 No. 13)): 0.25 µg/mL
- MIC (S. epidermidis MRSE; strain S. ep MRSE90 (Table 8 No. 10)): 0.25 µg/mL
- MIC (S. epidermidis MRSE; strain S. ep MRSE101 (Table 8 No. 7)): 0.25 µg/mL
- MIC (S. epidermidis MRSE; strain S. ep MRSE105 (Table 8 No. 11)): 0.25 µg/mL
- MIC (S. epidermidis MRSE; strain S. ep MRSE140 (Table 8 No. 14)): 0.25 µg/mL
- MIC (S. epidermidis MRSE; strain S. ep MRSE142 (Table 8 No. 12)): 0.25 µg/mL
- MIC (S. epidermidis MRSE; strain S. ep MRSE210 (Table 8 No. 15)): 0.25 µg/mL
- MIC (S. epidermidis MRSE; strain S. ep MRSE211 (Table 8 No. 8)): 0.25 µg/mL
- MIC50 (E. feacalis; [6]): 0.125 µg/mL
- MIC90 (E. feacalis; [6]): 0.25 µg/mL
- MICrange (E. feacalis; [6]): 0.06 to 0.25 µg/mL
- MIC (E. feacalis; strain Efa 54 (Table 8 No. 20)): 0.06 µg/mL
- MIC (E. feacalis; strain Efa 116 (Table 8 No. 16)): 0.25 µg/mL
- MIC (E. feacalis; strain Efa 3006 (Table 8 No. 18)): 0.06 µg/mL
- MIC (E. feacalis; strain Efa 33748 (Table 8 No. 17)): 0.25 µg/mL
- MIC90 (S. epidermidis MSSE; [7]): 0.25 µg/mL
- MICrange (S. epidermidis MSSE; [7]): 0.06 to 0.25 µg/mL
- MIC50 (S. epidermidis MSSE; Staphylococcus epidermidis, S. ep MSSE (10 strains), clinically isolated, read-out: MIC50): 0.25 µg/mL
- MIC (S. epidermidis MSSE; Staphylococcus epidermidis, strain S. ep MSSE113 (Table 7 No. 24), read-out: MIC): 0.25 µg/mL
- MIC (S. epidermidis MSSE; Staphylococcus epidermidis, strain S. ep MSSE118 (Table 8 No. 2), read-out: MIC): 0.25 µg/mL
- MIC (S. epidermidis MSSE; Staphylococcus epidermidis, strain S. ep MSSE140 (Table 8 No. 3), read-out: MIC): 0.25 µg/mL
- MIC (S. epidermidis MSSE; strain S. ep MSSE87 (Table 7 No. 23), hydrate): 0.06 µg/mL
- MIC (S. epidermidis MSSE; strain S. ep MSSE88 (Table 8 No. 5), hydrate): 0.25 µg/mL
- MIC (S. epidermidis MSSE; strain S. ep MSSE116 (Table 7 No. 25), hydrate): 0.25 µg/mL
- MIC (S. epidermidis MSSE; strain S. ep MSSE119 (Table 7 No. 27), hydrate): 0.25 µg/mL
- MIC (S. epidermidis MSSE; strain S. ep MSSE137 (Table 8 No. 4), hydrate): 0.25 µg/mL
- MIC (S. epidermidis MSSE; strain S. ep MSSE142 (Table 7 No. 26), hydrate): 0.125 µg/mL
- MIC (S. epidermidis MSSE; strain S. ep MSSE153 (Table 8 No. 1), hydrate): 0.25 µg/mL
- MIC50 [2, 8]: 0.25 µg/mL
- MIC90 [2, 8]: 0.25 µg/mL
- MICrange [2, 8]: 0.25 to 0.5 µg/mL
- MIC ([2]; Staphylococcus aureus, MRSA, strain S. MRSA 101 (Table 7 No. 14), read-out: MIC): 0.5 µg/mL
- MIC ([2]; Staphylococcus aureus, MRSA, strain S. MRSA 201 (Table 7 No. 13), read-out: MIC): 0.5 µg/mL
- MIC ([2]; Staphylococcus aureus, MRSA, strain S. MRSA B27 (Table 7 No. 21), read-out: MIC): 0.25 µg/mL
- MIC ([2]; strain S. MRSA 29 (Table 7 No. 15), hydrate): 0.25 µg/mL
- MIC ([2]; strain S. MRSA B105 (Table 7 No. 17), hydrate): 0.25 µg/mL
- MIC ([2]; strain S. MRSA B143 (Table 7 No. 19), hydrate): 0.25 µg/mL
- MIC ([2]; strain S. MRSA B151 (Table 7 No. 20), hydrate): 0.25 µg/mL
- MIC ([2]; strain S. MRSA B164 (Table 7 No. 16), hydrate): 0.25 µg/mL
- MIC ([2]; strain S. MRSA B199 (Table 7 No. 22), hydrate): 0.25 µg/mL
- MIC ([2]; strain S. MRSA B617 (Table 7 No. 18), hydrate): 0.25 µg/mL
- MIC50 (E. feacium; [9]): 0.5 µg/mL
- MIC90 (E. feacium; [9]): 1 µg/mL
- MICrange (E. feacium; [9]): 0.25 to 1 µg/mL
- MIC (E. feacium; strain Efm 98 (Table 8 No. 21), hydrate): 0.25 µg/mL
- MIC (E. feacium; strain Efm 171 (Table 8 No. 25), hydrate): 0.25 µg/mL
- MIC (E. feacium; strain Efm 197 (Table 8 No. 22)): 0.5 µg/mL
- MIC (E. feacium; strain Efm N3 (Table 8 No. 23), hydrate): 0.5 µg/mL
- MIC (E. feacium; strain Efm N4 (Table 8 No. 24), hydrate): 1 µg/mL
- Solubility compared with the anhydride ([3]; different solvents): sometimes more soluble than the anhydride
- Result ([3]; solvent 0.1N Hydrochloric acid): Dissolved
- Result ([3]; solvent 0.1N Sodium hydroxide): Insoluble
- Result ([3]; solvent Acetonitrile): Dissolved
- Result ([3]; solvent Ethanol): Dissolved
- Result ([3]; solvent Methanol): Dissolved
- Result ([3]; solvent Water, hydrate): Dissolved
- MIC (Staphylococcus aureus): 0.25 µg/mL
